Data taken from paper PMC12777568 (Antimicrobial Agents and Chemotherapy, 2025).

Assay: BIC plasma pharmacokinetics, Phase 1 open-label single-dose DDI study GS-US-380-3909 (B/F/TAF 50/200/25 mg with antacid or mineral supplements)
Type: in vivo, human
Conditions: for Cmax, reference GLSM: BIC alone (N = 14); for half-life / Vd/F / AUC(0-inf): both sexes, human, plasma, oral; for half-life: BIC T1/2, median (Q1, Q3); for Vd/F: BIC VZ/F; for Vd/F / AUC(0-inf): mean (%CV); for AUC(0-inf): BIC plasma AUCinf
Experimental: Eligible participants were adult (18–45 years) males and non-pregnant, non-lactating females in good general health at a screening evaluation performed no more than 28 days before the first study dose. […] Full eligibility criteria are available in the supplement. All prescription and over-the-counter medications except vitamins, acetaminophen, ibuprofen, and hormonal contraceptives were not permitted during study participation. Three dosing cohorts were evaluated (Table 1). […] Vitamins and/or other supplements were not permitted on the dosing day. […] Participants received maximum-strength antacid oral suspension (four teaspoons; 20 mL; 1,600 mg aluminum hydroxide/1,600 mg magnesium hydroxide/160 mg simethicone; referred to as “aluminum/magnesium-containing antacid”) on Day 9, calcium carbonate (1,200 mg; 2 × 600 mg tablets) on Day 17, and ferrous fumarate (1 × 324 mg tablet) on Day 25. […] All samples were analyzed within the timeframe determined using frozen stability storage data. […] PK parameters were estimated using Phoenix WinNonlin software (Version 6.4, Pharsight Corporation, Princeton, NJ, USA) using standard noncompartmental analysis methods. […] The estimated 90% CIs were compared to a prespecified lack of DDI boundary of 70%–143%. […] A minimum of 12 evaluable participants in each cohort was calculated to be needed to reject the null hypothesis (i.e., the 90% CI for the GLSM ratio for each PK parameter was outside the prespecified boundary) with ≥90% power.

[1] = Cohort 1 fasted, B/F/TAF + calcium carbonate simultaneous, N = 14
[2] = Cohort 1 fasted, B/F/TAF alone, N = 14
[3] = Cohort 1 fasted, simultaneous aluminum/magnesium-containing antacid
[4] = Cohort 1 fasted, simultaneous calcium carbonate
[5] = Cohort 1 fasted, simultaneous ferrous fumarate
[6] = Cohort 2 fasted, B/F/TAF 2 hours after aluminum/magnesium-containing antacid
[7] = Cohort 2 fasted, B/F/TAF 2 hours after aluminum/magnesium-containing antacid, N = 13
[8] = Cohort 2 fasted, B/F/TAF 2 hours before aluminum/magnesium-containing antacid, N = 13
[9] = Cohort 2 fasted, B/F/TAF alone, N = 14
[10] = Cohort 3, B/F/TAF alone (fasted), N = 14
[11] = Cohort 3 fed, B/F/TAF + aluminum/magnesium-containing antacid simultaneous, N = 14
[12] = Cohort 3 fed, simultaneous aluminum/magnesium-containing antacid
[13] = Cohort 1 fasted, B/F/TAF + aluminum/magnesium-containing antacid simultaneous, N = 14
[14] = Cohort 1 fasted, B/F/TAF + ferrous fumarate simultaneous, N = 14
[15] = Cohort 3 fed, B/F/TAF + ferrous fumarate simultaneous, N = 14

Structure (SMILES): O=C(NCc1c(F)cc(F)cc1F)c1cn2c(c(O)c1=O)C(=O)N1[C@H]3CC[C@H](C3)O[C@@H]1C2 [BIC, bictegravir]
- BIC T1/2, median (Q1, Q3) [1]: 21.0 (17.6, 25.0) h
- BIC plasma Tmax, median (Q1, Q3) [1]: 1.8 (1.5, 4.0) h
- BIC plasma AUCinf, mean (%CV) [2]: 121.9 (24.4) µg*h/mL
- Cmax, reference GLSM (Cohort 1 fasted): 5540 ng/mL
- Delay of median Tmax compared with B/F/TAF alone [3]: 1 h
- Increase in mean BIC CL/F compared with B/F/TAF alone [3]: 404%
- Increase in mean BIC Vz/F compared with B/F/TAF alone [3]: 421%
- Reduction in BIC AUCinf compared with B/F/TAF alone [3]: 79%
- Reduction in BIC C24 compared with B/F/TAF alone [3]: 78%
- Reduction in BIC Cmax compared with B/F/TAF alone [3]: 80%
- Increase in mean BIC CL/F compared with B/F/TAF alone [4]: 56%
- Increase in mean BIC Vz/F compared with B/F/TAF alone [4]: 84%
- Reduction in BIC AUCinf compared with B/F/TAF alone [4]: 33%
- Reduction in BIC C24 compared with B/F/TAF alone [4]: 35%
- Reduction in BIC Cmax compared with B/F/TAF alone [4]: 42%
- Delay of median Tmax compared with B/F/TAF alone [5]: 1.5 h
- Increase in mean BIC CL/F compared with B/F/TAF alone [5]: 174%
- Increase in mean BIC Vz/F compared with B/F/TAF alone [5]: 216%
- Reduction in BIC AUCinf compared with B/F/TAF alone [5]: 63%
- Reduction in BIC C24 compared with B/F/TAF alone [5]: 63%
- Reduction in BIC Cmax compared with B/F/TAF alone [5]: 71%
- Cmax, test GLSM (Cohort 2 fasted, B/F/TAF 2 h before aluminum/magnesium-containing antacid, N = 14): 5460 ng/mL
- Decrease in BIC AUCinf compared with B/F/TAF alone [6]: 52%
- Decrease in BIC C24 compared with B/F/TAF alone [6]: 53%
- Decrease in BIC Cmax compared with B/F/TAF alone [6]: 59%
- Delay of median Tmax compared with B/F/TAF alone [6]: 1 h
- Increase in mean BIC CL/F compared with B/F/TAF alone [6]: 124%
- Increase in mean BIC VZ/F compared with B/F/TAF alone [6]: 180%
- BIC plasma Tmax, median (Q1, Q3) [7]: 2.0 (1.5, 3.0) h
- Delay of median Tmax compared with B/F/TAF alone (Cohort 2 fasted, B/F/TAF 2 hours before aluminum/magnesium-containing antacid): 1.5 h
- BIC plasma Tmax, median (Q1, Q3) [8]: 1.5 (1.5, 2.0) h
- BIC T1/2, median (Q1, Q3) [9]: 20.8 (16.5, 22.8) h
- BIC plasma Tmax, median (Q1, Q3) [9]: 3.0 (2.0, 3.0) h
- BIC T1/2, median (Q1, Q3) [10]: 18.0 (17.5, 19.9) h
- BIC plasma Tmax, median (Q1, Q3) [10]: 1.5 (1.5, 2.0) h
- Cmax, reference GLSM (Cohort 3, fasted): 4540 ng/mL
- BIC T1/2, median (Q1, Q3) [11]: 17.9 (16.9, 20.2) h
- Decrease in BIC AUCinf compared with B/F/TAF alone under fasted conditions [12]: 47%
- Decrease in BIC C24 compared with B/F/TAF alone under fasted conditions [12]: 44%
- Decrease in BIC Cmax compared with B/F/TAF alone under fasted conditions [12]: 49%
- Delay of median Tmax compared with B/F/TAF alone under fasted conditions [12]: 2 h
- Increase in mean BIC CL/F compared with B/F/TAF alone under fasted conditions [12]: 89%
- Increase in mean BIC Vz/F compared with B/F/TAF alone under fasted conditions [12]: 89%
- Delay of median Tmax compared with B/F/TAF alone under fasted conditions (Cohort 3 fed, simultaneous calcium carbonate): 2 h
- Delay of median Tmax compared with B/F/TAF alone under fasted conditions (Cohort 3 fed, simultaneous ferrous fumarate): 2.5 h
- half-life [13]: 20.2 h
- half-life [14]: 21.9 h
- half-life [2]: 18.9 h
- half-life [7]: 24.2 h
- half-life [8]: 21.8 h
- half-life (Cohort 3 fed, B/F/TAF + calcium carbonate simultaneous, N = 14): 18.9 h
- half-life [15]: 19.3 h
- Vd/F [13]: 61.4 L
- Vd/F [1]: 21.7 L
- Vd/F [14]: 37.3 L
- Vd/F [2]: 11.8 L
- Vd/F [7]: 31.2 L
- Vd/F [8]: 14.4 L
- Vd/F [9]: 11.2 L
- Vd/F [11]: 29.1 L
- Vd/F [15]: 19.3 L
- AUC(0-inf) [13]: 28000 ng·h/mL
- AUC(0-inf) [1]: 85000 ng·h/mL
- AUC(0-inf) [14]: 46100 ng·h/mL
- AUC(0-inf) [7]: 67700 ng·h/mL
- AUC(0-inf) [8]: 116000 ng·h/mL
- AUC(0-inf) [9]: 133000 ng·h/mL
